In brackets after ≈: the same amount, converted by molar mass.
Experiments:
[1] = test system: Eschericia coli (DSM 1116); experiment: Antimicrobial microdilution assay (MIC); type: cell-based, Escherichia coli; conditions: seven 1:2 serial dilution steps, Mueller–Hinton bouillon, start OD600 0.01, 30 °C, 160 rpm overnight; for MIC, Gram-Negative, Ec: microdilution in 96-well plates
From the text: (§1) The panel of test microorganisms consisted of the following multi drug-resistant (MDR) bacteria: Gram-negative Escherichia coli (DSM 1116) and Pseudomonas aeruginosa (PA16); Gram-positive Bacillus subtilis (DSM 10), Staphylococcus aureus (DSM 346), and Mycobacterium smegmatis (ATCC 7000048); yeasts Candida albicans (DSM 1665) and Rhodotorula glutinis (DSM 10134); and filamentous fungi Mucor hiemalis (DSM 2656). The positive controls were nystatin, oxytetracyclin, kanamycin, and gentamycin, with a concentration of 1 mg/mL. Compounds 1–4 were prepared in a concentration of 1 mg/mL MeOH. The activity of the samples was observed by using the microdilution technique in 96 well plates for tissue cultures (TPP). As much as 20 µL of the MeOH solution of each compound (1 mg/mL) was mixed with 300 µL of bacterial or fungal suspension, except for the positive controls where 2 µL of either oxytetracycline, kanamycin, and gentamycin in 300 µL of bacterial suspension was used. The samples were tested in seven 1:2 serial dilution steps (concentrations A to H) in 96-well plates. Bacteria were cultivated in Mueller–Hinton bouillon (Roth) and fungi/yeasts in MYC medium (1.0% phytone peptone, 1.0% glucose, and 1.19% HEPES, pH 7.0). Start OD600 was 0.01 for B. subtilis, E. coli, and S. aureus; start OD548 was 0.1 for M. hiemalis, C. albicans, R. glutinis, M. smegmatis, and P. aeruginosa. The test organisms were cultivated at 30 °C and 160 rpm overnight.

[2] = test system: Mucor hiemalis (DSM 2656); type: cell-based; conditions: for MIC, Fungi, Mh: Mucor hiemalis (DSM 2656), microdilution in 96-well plates, seven 1:2 serial dilution steps, MYC medium pH 7.0, start OD548 0.1, 30 °C, 160 rpm overnight
From the text: as §1

[3] = test system: Rhodoturula glutinis (DSM 10134); type: cell-based; conditions: for MIC, Fungi, Rg: Rhodoturula glutinis (DSM 10134), microdilution in 96-well plates, seven 1:2 serial dilution steps, MYC medium pH 7.0, start OD548 0.1, 30 °C, 160 rpm overnight
From the text: as §1

[4] = test system: Hepatitis C Virus (HCV), Jc1-derived Renilla reporter viruses in Huh7.5 Fluc cells; experiment: Inhibitory effects on Hepatitis C Virus (HCV) infectivity; type: cell-based; conditions: 10 µg/mL, Huh7.5 Fluc cells infected with Jc1-derived Renilla reporter viruses, Renilla luciferase read-out, compared to positive control EGCG, Figure 4A
Procedure: (§2) The anti-HCV assay was performed as mentioned in [5]. In brief, Huh7.5 cells stably expressing Firefly luciferase (Huh7.5 Fluc) were cultured in Dulbecco’s modified minimum essential medium (DMEM, Gibco, Thermo Fisher Scientific, Schwerte, Germany) and maintained in a 37 °C environment with 5% CO2 supply. Samples were added to the cells, and then the cells were infected with Jc1-derived Renilla reporter viruses. Compounds and the positive control (Epigallocatechin gallate, EGCG) were tested at a concentration of 10 µg/mL. Renilla and Firefly luciferase activities from the infected cells were measured on a Berthold Technologies Centro XS3 Microplate Luminometer (Bad Wildbad, Germany) as indicators of viral genome replication and cell viability, respectively.

Huh7.5 cells = experiment: Viability of Huh7.5 cells (Firefly luciferase) in the anti-HCV assay; type: cell-based; conditions: 10 µg/mL; Firefly luciferase read-out; compared to positive control EGCG; Figure 4B
Procedure: as §2

[5] = test system: Pseudomonas aeruginosa (PA14); experiment: Antimicrobial microdilution assay (MIC); type: cell-based; conditions: microdilution in 96-well plates, seven 1:2 serial dilution steps, Mueller–Hinton bouillon, start OD548 0.1, 30 °C, 160 rpm overnight
From the text: as §1

[6] = test system: Bacillus subtilis (DSM 10); experiment: microbe, parasite or virus in culture; type: cell-based; conditions: seven 1:2 serial dilution steps, Mueller–Hinton bouillon, start OD600 0.01, 30 °C, 160 rpm overnight
From the text: as §1

[7] = test system: Staphylococcus aureus (DSM 346); experiment: microbe, parasite or virus in culture; type: cell-based; conditions: seven 1:2 serial dilution steps, Mueller–Hinton bouillon, start OD600 0.01, 30 °C, 160 rpm overnight; for MIC, Gram-Positive, Sa: microdilution in 96-well plates
From the text: as §1

Bacillus subtilis (Bs) = conditions: pH values from 5.5 to 9.5; cited from earlier work
From the text: Previous studies had also shown antifungal activity of valinomycin against the plant pathoge ...

[8] = test system: Mycobacterium smegmatis (ATCC 700084); experiment: Antimicrobial microdilution assay (MIC); type: cell-based; conditions: microdilution in 96-well plates, seven 1:2 serial dilution steps, Mueller–Hinton bouillon, start OD548 0.1, 30 °C, 160 rpm overnight
From the text: as §1

[9] = test system: Candida albicans (DSM 1665); experiment: Antimicrobial microdilution assay (MIC); type: cell-based; conditions: microdilution in 96-well plates, seven 1:2 serial dilution steps, MYC medium pH 7.0, start OD548 0.1, 30 °C, 160 rpm overnight
From the text: as §1

| Molecule | MIC, Gram-Negative, Ec [1] | MIC, Fungi, Mh [2] [µg/mL] | MIC, Fungi, Rg [3] [µg/mL] | Activity against HCV infectivity (HCV-infected hepatoma cells), in words [4] | Viability of Huh7.5 cells after exposure to the test compounds, in words (Huh7.5 cells) | further results |
| --- | --- | --- | --- | --- | --- | --- |
| CC[C@H]1OC(=O)[C@H](C(C)C)NC(=O)[C@H](C)OC(=O)[C@@H](C(C)C)NC(=O)[C@@H](C(C)C)OC(=O)[C@H](C(C)C)NC(=O)[C@H](C)OC(=O)[C@@H](C(C)C)NC(=O)[C@@H](C(C)C)OC(=O)[C@H](C(C)C)NC(=O)[C@H](C)OC(=O)[C@@H](C(C)C)NC1=O [Streptodepsipeptide P11A (2), Streptodepsipeptide P11A] | - | 8.3 (≈ 7.56 µM) | 8.3 (≈ 7.56 µM) | potent antiviral activity | lower than for the positive control |  |
| Gentamycin |  |  |  |  |  | MIC, Gram-Negative, Pa [5]: 0.4 µg/mL |
| CC(C)[C@@H]1NC(=O)[C@H](C)OC(=O)[C@@H](C(C)C)NC(=O)[C@@H](C(C)C)OC(=O)[C@H](C(C)C)NC(=O)[C@H](C)OC(=O)[C@@H](C(C)C)NC(=O)[C@@H](C(C)C)OC(=O)[C@H](C(C)C)NC(=O)[C@H](C)OC(=O)[C@@H](C(C)C)NC(=O)[C@H](C)OC1=O [Streptodepsipeptide P11B (1), Streptodepsipeptide P11B] | - | 16.6 (≈ 15.3 µM) | 33.3 (≈ 30.7 µM) | significantly less affected the HCV |  |  |
| CCC(C)[C@H]1OC(=O)[C@H](C(C)C)NC(=O)[C@H](C)OC(=O)[C@@H](C(C)C)NC(=O)[C@@H](C(C)C)OC(=O)[C@H](C(C)C)NC(=O)[C@H](C)OC(=O)[C@@H](C(C)C)NC(=O)[C@@H](C(C)C)OC(=O)[C@H](C(C)C)NC(=O)[C@H](C)OC(=O)[C@@H](C(C)C)NC1=O (stereo partly drawn) [Streptodepsipeptide SV21 (4), Streptodepsipeptide SV21] | - | 16.6 (≈ 14.8 µM) | 16.6 (≈ 14.8 µM) |  | lower than for the positive control | Activity against HCV infectivity (HCV-infected hepatoma cells), in words ([4]; listed as 4): potent antiviral activity; MIC, Gram-Positive, Bs ([6]; microdilution in 96-well plates): 33.3 µg/mL (≈ 29.6 µM); MIC, Gram-Positive, Sa [7]: 16.6 µg/mL (≈ 14.8 µM) |
| CC(C)[C@@H]1NC(=O)[C@H](C)OC(=O)[C@@H](C(C)C)NC(=O)[C@@H](C(C)C)OC(=O)[C@H](C(C)C)NC(=O)[C@H](C)OC(=O)[C@@H](C(C)C)NC(=O)[C@@H](C(C)C)OC(=O)[C@H](C(C)C)NC(=O)[C@H](C)OC(=O)[C@@H](C(C)C)NC(=O)[C@@H](C(C)C)OC1=O [Valinomycin (3), Valinomycin] | - | 2.1 (≈ 1.89 µM) | 4.2 (≈ 3.78 µM) | potent antiviral activity | lower than for the positive control | Antifungal strength relative to nystatin against Mh ([2]; comparison of MIC values, Mucor hiemalis): eight times stronger than nystatin; Antifungal strength relative to nystatin against Rg ([3]; comparison of MIC values, Rg): as strong as nystatin; MIC, Gram-Positive, Sa [7]: 4.2 µg/mL (≈ 3.78 µM); Antibacterial activity against Bs as a function of pH, in words (Bacillus subtilis (Bs)): increase in antibacterial activity against Bs at higher pH values |
| NC[C@H]1O[C@H](O[C@H]2[C@H](O)[C@@H](O[C@H]3O[C@H](CO)[C@@H](O)[C@H](N)[C@H]3O)[C@H](N)C[C@@H]2N)[C@H](O)[C@@H](O)[C@@H]1O [Kanamycin] |  |  |  |  |  | MIC, Gram-Positive, Ms [8]: 3.3 µg/mL (≈ 6.81 µM) |
| CN(C)[C@@H]1C(O)=C(C(N)=O)C(=O)[C@@]2(O)C(O)=C3C(=O)c4c(O)cccc4[C@@](C)(O)[C@H]3[C@H](O)[C@@H]12 [Oxytetracycline, reference compound] |  |  |  |  |  | MIC ([1]; Escherichia coli, DSM1116, microdilution in 96-well plates, read-out: MIC, Gram-Negative, Ec): 1.7 µg/mL (≈ 3.69 µM); MIC ([6]; DSM10, microdilution in 96-well plates, read-out: MIC, Gram-Positive, Bs): 8.3 µg/mL (≈ 18 µM); MIC ([7]; DSM346, microdilution in 96-well plates, read-out: MIC, Gram-Positive, Sa): 0.2 µg/mL (≈ 0.434 µM) |
| C[C@@H]1[C@H](O)[C@@H](C)/C=C/C=C/CC/C=C/C=C/C=C/C=C/C(O[C@H]2O[C@H](C)[C@@H](O)[C@H](N)[C@@H]2O)CC2O[C@](O)(CC(O)C(O)CCC(O)CC(O)CC(O)CC(=O)O[C@H]1C)CC(O)C2C(=O)O (stereo partly drawn) [Nystatin, reference compound] |  | 16.6 (≈ 17.9 µM) | 4.2 (≈ 4.54 µM) |  |  | MIC, Fungi, Ca [9]: 33.3 µg/mL (≈ 36 µM) |
